# Assay results published in PubChem BioAssay (NCI).
#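 How tested: cells in 96-well plates exposed to compound for 48 hours at five concentrations. Here, GI50 denotes the concentration required for 50% inhibition of growth. The concentration for full growth arrest is given as TGI.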
# Experiments:
# Experiment in all cases: inhibition of tumour cell growth, NCI panel, 48 h
# ACHN renal = tested on: ACHN renal
# HL-60(TB) leukemia = tested on: HL-60(TB) leukemia
# SK-MEL-5 melanoma = tested on: SK-MEL-5 melanoma
# SN12C renal = tested on: SN12C renal
# CAKI-1 renal = tested on: CAKI-1 renal
# SK-OV-3 ovarian = tested on: SK-OV-3 ovarian
# MOLT-4 leukemia = tested on: MOLT-4 leukemia
# SNB-19 CNS = tested on: SNB-19 CNS
# T-47D breast = tested on: T-47D breast
# HS 578T breast = tested on: HS 578T breast
Compound,GI50 (ACHN renal) [µM],TGI (ACHN renal) [µM],GI50 (HL-60(TB) leukemia) [µM],TGI (HL-60(TB) leukemia) [µM],GI50 (SK-MEL-5 melanoma) [µM],TGI (SK-MEL-5 melanoma) [µM],GI50 (SN12C renal) [µM],TGI (SN12C renal) [µM],GI50 (CAKI-1 renal) [µM],TGI (CAKI-1 renal) [µM],GI50 (SK-OV-3 ovarian) [µM],TGI (SK-OV-3 ovarian) [µM],GI50 (MOLT-4 leukemia) [µM],TGI (MOLT-4 leukemia) [µM],GI50 (SNB-19 CNS) [µM],TGI (SNB-19 CNS) [µM],GI50 (T-47D breast) [µM],TGI (T-47D breast) [µM],GI50 (HS 578T breast) [µM],TGI (HS 578T breast) [µM]
CCC[CH2][Sn]1([CH2]CCC)[O]C(c2ccccn2)S(=O)(=O)[O]1 (configuration not stated),7.88,20,2.14,5.04,12.5,25,9.11,21.1,1.58,3.63,16.8,30.9,2.84,7.51,11.4,23.5,,,,
O=C1C(=O)c2cc([N+](=O)[O-])ccc2-c2ccccc21,1.6,2.96,,,1.8,3.2,1.66,3.05,1.67,3.21,1.76,3.14,,,1.6,3,1.76,3.77,1.68,4.49
OCCN1CCN(CCO)Cc2ccccc2OCCOc2ccccc2C1,,> 100,,,,> 100,,> 100,,> 100,,> 100,,> 100,,> 100,,,,
CC1=CC(=O)C(C)(C2=NC(C)(C)CO2)c2ccccc21 (configuration not stated),,> 100,,> 100,,> 100,,> 100,,> 100,,> 100,,> 100,,> 100,,,,
CCN1C(C)=NC2C(=O)c3ccccc3C(=O)C21 (configuration not stated),,> 100,,> 100,,68,,> 100,,,,,,> 100,,> 100,,,,
CC1(C)CC23C(=O)N(c4ccccc4)C(=Nc4ccccc4)NC2=CC(C#N)=C(C#N)C3O1 (configuration not stated),,> 100,,89.9,,95.5,,> 100,,> 100,,,,> 100,,> 100,,,,
COc1cccc(/C=C(/C(=O)O)c2cc(OC)c(OC)c(OC)c2)c1,,> 100,,> 100,,> 100,,> 100,,> 100,,,,> 100,,> 100,,,,
CS(=O)(=O)c1ccc(N/N=C/c2c(-c3ccc(S(C)(=O)=O)cc3)[nH]c3ccc(F)cc23)cc1,3.32,> 50,2.59,> 50,0.792,1.5,2.97,> 50,> 50,> 50,3.27,> 50,1.19,> 50,2.36,> 50,1.41,> 50,,
CC(C#N)c1cn(S(=O)(=O)c2ccccc2)c2ccccc12 (configuration not stated),,> 100,,88.1,,36.9,,,,> 100,,,,> 100,,> 100,,,,
C/C(CC(=O)CCCC(=O)Nc1ccc(Cl)cc1Cl)=N/NC(=O)CC#N,,> 100,,> 100,,> 100,,> 100,,> 100,,> 100,,> 100,,> 100,,,,
C/C(=N\O)c1sc(-n2nc(-c3ccccc3)cc2-c2ccccc2)nc1C,,19.6,,23,,17.3,,15.4,,27.3,,,,25.5,,17.9,,,,
CC[O-].CC[O-].[O-]c1ccccc1C=Nc1ccccc1.[O-]c1ccccc1C=Nc1ccccc1.[Ti+4],23.8,> 100,> 100,> 100,45.5,> 100,> 100,> 100,85.1,> 100,> 100,> 100,28.4,> 100,> 100,> 100,,,,
CC(=O)[CH-]C(=O)c1ccccc1.CC(=O)[CH-]C(=O)c1ccccc1.O=C([O-])C[O-].O=C([O-])C[O-].[Ti+4],44.9,> 100,40,> 100,31.9,> 100,60.5,> 100,54.5,> 100,35.8,> 100,27.7,> 100,30.8,> 100,,,,
Nc1ccccc1NC(=O)c1ccc(CSc2nc(N3CCOCC3)c3cccn3n2)cc1,0.863,> 100,0.273,0.961,0.415,1.61,1.38,> 100,,,0.79,6.43,,,2.67,> 100,0.498,> 100,0.781,> 100
O=C1c2ccccc2C(=O)N1/N=C\c1ccc(Br)cc1,> 100,> 100,> 100,> 100,> 100,> 100,> 100,> 100,,> 10,,> 100,> 100,> 100,> 100,> 100,,,,
CC(=O)O[C@H](C[C@H](C(C)C)N(C)C(=O)[C@@H](NC(=O)[C@H]1CCCCN1C)C(C)C)c1nc(C(=O)N[C@@H](Cc2ccccc2)C[C@H](C)C(=O)O)c(C)s1,,,,,< 0.0025,0.0144,< 0.0025,> 25,,,< 0.0025,> 25,< 0.0025,> 25,< 0.0025,> 25,,,< 0.0025,> 25
Cc1cc(C)c(C(=O)O)c(N)c1O,,> 100,,> 100,,> 100,,> 100,,> 100,,> 100,,> 100,,> 100,,,,
Nn1c(CCCl)nc2c(Br)cc(Br)cc2c1=O,,> 74.7,,6.5,,37.8,,> 84.2,,> 93.2,,> 94.1,,61.3,,> 100,,,,
CC1(C)CCC(=O)c2c(O)ccc(O)c21,,,,,,> 100,,> 100,,> 100,,> 100,,> 100,,> 100,,,,
